# According to article PMC10364317, “Regulation of indole‐3‐acetic acid biosynthesis and consequences of auxin production deficiency in Serratia plymuthica” (Microbial Biotechnology, 2023):
# “Also recorded” adds a separate entry of the source. Read-outs that look alike come from different tables or passages of the source.
# T1: TyrR (TyrRA153) (Serratia plymuthica A153, UniProt A0A318P557 1-523)
# T1 sequence: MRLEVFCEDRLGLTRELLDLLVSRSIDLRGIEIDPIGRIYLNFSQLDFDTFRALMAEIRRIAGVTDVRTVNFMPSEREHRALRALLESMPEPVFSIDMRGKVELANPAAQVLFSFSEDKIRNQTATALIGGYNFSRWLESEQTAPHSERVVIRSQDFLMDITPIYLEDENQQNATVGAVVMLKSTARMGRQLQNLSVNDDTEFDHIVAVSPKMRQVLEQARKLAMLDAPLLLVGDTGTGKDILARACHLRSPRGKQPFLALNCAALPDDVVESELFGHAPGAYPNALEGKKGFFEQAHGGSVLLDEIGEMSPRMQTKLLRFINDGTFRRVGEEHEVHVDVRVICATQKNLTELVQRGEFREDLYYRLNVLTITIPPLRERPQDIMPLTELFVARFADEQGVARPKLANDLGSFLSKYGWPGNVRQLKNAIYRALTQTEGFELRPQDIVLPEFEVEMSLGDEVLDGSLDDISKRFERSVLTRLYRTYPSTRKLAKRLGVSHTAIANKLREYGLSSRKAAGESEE
# B1: Pipdc-wt-ITC (wild-type TyrR box) (dsDNA)
# DNA 1: CCCCTGTAAAGGAGCCATTACATCAA
# DNA 2: TTGATGTAATGGCTCCTTTACAGGGG
# B2: Pipdc-mut-ITC (mutant TyrR box) (dsDNA)
# DNA 1: CCCCGACGTGGGAGCCGCCGTGTCAA
# DNA 2: TTGACACGGCGGCTCCCACGTCGGGG
# Key:
# [1] = test system: HpaRA153; assay: Isothermal titration calorimetry of HpaRA153 with ligands; format: binding, Serratia plymuthica A153
# Procedure: (§1) Measurements were made using a VP‐ITC microcalorimeter (MicroCal, Inc., Northampton, MA) at 10–25°C. HpaAA153 and HpaRA153 were dialyzed into 50 mM Tris, 300 mM NaCl, 10% (v/v) glycerol, 2 mM β‐mercaptoethanol, pH 8.0. Alternatively, TyrRA153 was dialyzed into 5 mM Tris, 5 mM PIPES, 5 mM MES, 150 mM NaCl, 10 mM MgCl2, 10 mM β‐mercaptoethanol, 10% (v/v) glycerol, pH 7.5. Proteins at 5–50 μM were placed into the sample cell and titrated with 3.2–12.8 μL aliquots of 0.5–10 mM ligand solutions made up in the corresponding dialysis buffers. For DNA binding studies, wild‐type and mutant oligonucleotides corresponding to the TyrR box were synthesized and annealed. Briefly, an equimolar mixture of 200 μM of each complementary oligonucleotide was prepared in 10 mM Tris, 50 mM NaCl, 1 mM EDTA, pH 7.5. This mixture was subsequently incubated at 95°C for 5 min, chilled on ice and dialyzed in the same buffer used for TyrRA153 ITC studies. A typical experiment consisted in an injection of 3.2–12.8 μL aliquots of 100 μM DNA into a 5–20 μM protein solution in the absence and presence of TyrR ligands (e.g. 1 mM L‐Trp; 1 mM L‐Phe; 0.1 mM L‐Tyr; 0.5 mM ATP). Protein‐DNA interaction studies were done at 10°C. In all cases, the mean enthalpies measured from the injection of the ligand in the buffer were subtracted from raw titration data before data analysis with the ORIGIN software (MicroCal).
# [2] = molecular target: HpaAA153 (Serratia plymuthica, UniProt A0A7T2WCJ6); assay: Isothermal titration calorimetry of HpaAA153 with ligands; format: binding, Serratia plymuthica A153
# HpaAA153, sequence (A0A7T2WCJ6 entry or part of it): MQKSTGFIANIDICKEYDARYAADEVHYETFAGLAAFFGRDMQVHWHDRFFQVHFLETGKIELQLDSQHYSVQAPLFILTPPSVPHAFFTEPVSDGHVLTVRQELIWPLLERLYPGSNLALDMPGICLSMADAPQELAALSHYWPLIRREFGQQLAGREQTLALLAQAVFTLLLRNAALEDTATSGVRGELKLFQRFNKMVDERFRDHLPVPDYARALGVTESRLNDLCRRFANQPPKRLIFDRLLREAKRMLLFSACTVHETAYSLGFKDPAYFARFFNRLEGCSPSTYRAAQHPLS
# Procedure: as §1
# [3] = molecular target: T2, TyrRA153 (Serratia plymuthica, UniProt A0A318P557); assay: Microcalorimetric titrations of TyrRA153 with 26-bp DNA oligomers of the ipdc promoter (TyrR box); format: binding, Serratia plymuthica A153; details: wild-type ipdc promoter oligomer; for increase of TyrRA153 DNA binding affinity: saturating ligand concentration
# Procedure: as §1
# [4] = molecular target: T2, TyrRA153; assay: Isothermal titration calorimetry of TyrRA153 with ligands; format: binding, Serratia plymuthica A153; details: for competition with L-Tyr for binding at the ATP-dependent site of TyrRA153: 10 mM competitor, 1 mM ATP, titration with 1 mM L-Tyr
# Procedure: as §1
# [5] = test system: ipdc promoter; assay: β-Galactosidase assay of the ipdc promoter fusion (P ipdc::lacZ; pMAMV302); format: cell-based, Serratia plymuthica A153; details: for induction of ipdc gene expression compared to the same medium lacking the ligand: minimal medium with 15 mM glucose, 1 mM ligand, 24 h
# Procedure: Expression of the lacZ reporter gene was monitored during growth using 2‐nitrophenyl β‐D‐galactopyranoside (ONPG; Merck) as a substrate, as described previously (Miller, [1972]). The transcriptional fusion assays were carried out using S. plymuthica A153 LacZ (control) or derived mutants.
# [6] = design: method as in Patten et al., [2013]; details: ref Patten et al., [2013]; cited from earlier work
# [7] = molecular target: T1, TyrR (TyrRA153); assay: ITC; L-Tyr + ATP (saturating; e.g. 0.1 mM L-Tyr, 0.5 mM ATP); 10 mM MgCl2; ITC: 5 mM Tris, 5 mM PIPES, 5 mM MES, 150 mM NaCl, 10 mM MgCl2, 10 mM beta-mercaptoethanol, 10% glycerol, pH 7.5, 10 C; 100 uM DNA injected into 5-20 uM TyrR; details: protein: recombinant; tags: N-terminal His6; chain copies: 2; blunt
# [8] = molecular target: T1, TyrR (TyrRA153); assay: ITC; no amino acid or ATP; 10 mM MgCl2; ITC: 5 mM Tris, 5 mM PIPES, 5 mM MES, 150 mM NaCl, 10 mM MgCl2, 10 mM beta-mercaptoethanol, 10% glycerol, pH 7.5, 10 C; 100 uM DNA injected into 5-20 uM TyrR; details: protein: recombinant; tags: N-terminal His6; chain copies: 2; blunt
# [9] = molecular target: T1, TyrR (TyrRA153); assay: ITC; L-Phe (saturating; e.g. 1 mM); 10 mM MgCl2; ITC: 5 mM Tris, 5 mM PIPES, 5 mM MES, 150 mM NaCl, 10 mM MgCl2, 10 mM beta-mercaptoethanol, 10% glycerol, pH 7.5, 10 C; 100 uM DNA injected into 5-20 uM TyrR; details: protein: recombinant; tags: N-terminal His6; chain copies: 2; blunt
# [10] = ITC, in the presence of ATP, read-out: K D
# [11] = ITC, ligand alone (absence of ATP for amino acids)
# [12] = ITC, ligand alone (absence of ATP for amino acids), read-out: K D
molecule,measurement,setting,value
O=C(O)c1ccccc1 [Benzoic acid],binding to HpaRA153 as determined by isothermal titration calorimetry,[1],did not bind
same,binding to HpaAA153 as determined by isothermal titration calorimetry,[2],did not bind
"O=C(O)Cc1ccc(O)cc1 [4HPA, 4‐hydroxyphenylacetic acid]",binding to HpaRA153 as determined by isothermal titration calorimetry,[1],unable to observe the binding
same,Kd,[2],28.5 µM
"O=C(O)Cc1ccc(O)c(O)c1 [3,4HPA, 3,4‐dihydroxyphenylacetic acid]",binding to HpaRA153 as determined by isothermal titration calorimetry,[1],unable to observe the binding
same,binding to HpaRA153 as determined by isothermal titration calorimetry,"[1]; listed as 3,4-dihydroxyphenylacetic acid",did not bind
same,binding to HpaAA153 as determined by isothermal titration calorimetry,[2],did not bind
"N[C@@H](Cc1ccc(O)cc1)C(=O)O [L‐Tyr, L‐Tyrosine]",increase of TyrRA153 DNA binding affinity,[3],2.4 fold
same,ΔH,"[4]; ITC, in the presence of ATP",-6.8 ± 0.1 kcal/mol
same,Kd,[4]; [10],6 ± 0.2 µM
same,K D,[4]; [11],No binding
same,ΔH,[4]; [11],No binding
same,induction of ipdc gene expression compared to the same medium lacking the ligand,[5]; 30°C,11.0 fold
"N[C@@H](Cc1ccccc1)C(=O)O [L‐Phe, L‐Phenylalanine]",increase of TyrRA153 DNA binding affinity,[3],2.6 fold
same,competition with L-Tyr for binding at the ATP-dependent site of TyrRA153,[4]; ITC,compete with L‐Tyr for binding
same,ΔH,"[4]; ITC, in the presence of ATP",-0.2 ± 0.01 kcal/mol
same,Kd,[4]; [10],193 ± 24 µM
same,K D,[4]; [11],bound; also recorded: Binding ^a
same,ΔH,[4]; [11],Binding ^a
same,induction of ipdc gene expression compared to the same medium lacking the ligand,[5]; 30°C,5.1 fold
O=C(O)c1ccccc1O [Salicylic acid],binding to HpaRA153 as determined by isothermal titration calorimetry,[1],did not bind
same,binding to HpaAA153 as determined by isothermal titration calorimetry,[2],did not bind
O=C(O)Cc1cccc(O)c1 [3-hydroxyphenylacetic acid],binding to HpaRA153 as determined by isothermal titration calorimetry,[1],did not bind
O=C(O)C(=O)Cc1c[nH]c2ccccc12 [Indole-3-pyruvic acid],binding to HpaRA153 as determined by isothermal titration calorimetry,[1],did not bind
same,binding to HpaAA153 as determined by isothermal titration calorimetry,[2],did not bind
"O=C(O)Cc1c[nH]c2ccccc12 [IAA, Indole‐3‐acetic acid]",binding to HpaRA153 as determined by isothermal titration calorimetry,[1],unable to observe IAA binding
same,binding to HpaRA153 as determined by isothermal titration calorimetry,[1]; listed as Indole-3-acetic acid,did not bind
same,binding to TyrRA153 as determined by isothermal titration calorimetry,[4],did not bind
same,effect of supplementation on ipdc expression,"[5]; 0.25 mM and 1 mM, wild-type A153 and ipdc mutant",did not result in altered ipdc expression
same,induction of ipdc gene expression compared to the same medium lacking the ligand,[5]; 30°C,No changes in ipdc expression
same,pKa,[6],4.8
same,binding to HpaAA153 as determined by isothermal titration calorimetry,[2],unable to observe IAA binding
same,binding to HpaAA153 as determined by isothermal titration calorimetry,[2]; listed as Indole-3-acetic acid,did not bind
Cc1cccc(C(=O)O)c1 [3-methylbenzoic acid],binding to HpaRA153 as determined by isothermal titration calorimetry,[1],did not bind
same,binding to HpaAA153 as determined by isothermal titration calorimetry,[2],did not bind
O=C(O)c1ccc(O)cc1 [4‐hydroxybenzoic acid],binding to HpaRA153 as determined by isothermal titration calorimetry,[1],did not bind
same,Kd,[2],28.5 ± 2 µM
same,ΔH,"[2]; ITC, One binding site model",-0.4 ± 0.03 kcal/mol
"N[C@@H](Cc1c[nH]c2ccccc12)C(=O)O [L‐Trp, L‐Tryptophan]",reduction of TyrRA153 DNA affinity,[3]; presence of ligand,2.3 fold
same,competition with L-Tyr for binding at the ATP-dependent site of TyrRA153,[4]; ITC,compete with L‐Tyr for binding
same,ΔH 1,"[4]; ITC, in the presence of ATP",-1.8 ± 0.3 kcal/mol
same,ΔH 2,"[4]; ITC, in the presence of ATP",-7.9 ± 1.7 kcal/mol
same,Kd,"[4]; ITC, in the presence of ATP, read-out: K D1",1640 µM
same,Kd,"[4]; ITC, in the presence of ATP, read-out: K D2",2060 µM
same,K D,[4]; [11],bound
same,ΔH,[4]; [11],-1.6 ± 0.5 kcal/mol
same,Kd,[4]; [12],2680 ± 670 µM
same,effect of supplementation on ipdc transcription,"[5]; LB medium, different concentrations, 30°C",did not result in increased ipdc transcription
same,induction of ipdc gene expression compared to the same medium lacking the ligand,[5]; 30°C,no changes in ipdc expression
"O=C(O)Cc1ccccc1 [PAA, phenylacetic acid]",binding to HpaRA153 as determined by isothermal titration calorimetry,[1],did not recognize
same,binding to HpaRA153 as determined by isothermal titration calorimetry,[1]; listed as Phenylacetic acid,did not bind
same,binding to HpaAA153 as determined by isothermal titration calorimetry,[2],did not recognize
same,binding to HpaAA153 as determined by isothermal titration calorimetry,[2]; listed as Phenylacetic acid,did not bind
Nc1ncnc2c1ncn2[C@@H]1O[C@H](COP(=O)(O)OP(=O)(O)OP(=O)(O)O)[C@@H](O)[C@H]1O [ATP],ΔH,[4]; [11],-22.9 ± 1.5 kcal/mol
same,Kd,[4]; [12],16 ± 0.7 µM
B1,Kd,[7],0.081 ± 0.01 µM
same,Kd,[8],0.193 ± 0.02 µM
same,Kd,[9],0.074 ± 0.01 µM
B2,binding result,[8],no binding
